Series [1] concerns the target Voltage-gated potassium channel, KQT; KCNQ2(Kv7.2)/KCNQ3(Kv7.3) (Homo sapiens, UniProt O43525+O43526). Put plainly: Agonist activity at human KCNQ2/3 transfected in human HEK293 cells incubated for 30 mins by fluorimetric assay. It is filed as cell-based.
In series [2] the test system is Rattus norvegicus. The series is described as follows: Antinociceptive activity against formalin-induced pain in male Sprague-Dawley rat assessed as reduction in nociceptive response at 40 mg/kg, IG pretreated for 5 mins followed by formalin challenge and measured for first 9 mins (phase I). It is filed as functional, organism-based. The settings on record: time 14.0 min.

The test system of series [3] is Mus musculus. The series is described as follows: Induction of motor coordination impairment in mouse at 20 mg/kg, IG measured upto 120 mins by rotarod method. Format: functional, organism-based.
For series [4], the system named is Rattus norvegicus. Put plainly: Antinociceptive activity against formalin-induced pain in male Sprague-Dawley rat assessed as reduction in nociceptive response at 40 mg/kg, IG pretreated for 5 mins followed by formalin challenge and measured for 10 to 60 mins (phase II). Format: functional, organism-based. The settings on record: time 15-65 min.
In series [5] the test system is Rattus norvegicus. The series is described as follows: Antiallodynic activity in spinal nerve ligation-induced neuropathic pain male Sprague-Dawley rat model assessed as mechanical withdrawal threshold at 40 mg/kg, IG pretreated with compound for 1 hr and measured on day 15 after surgery. Format: functional, organism-based. The settings on record: time 15.0 day.
A short description of series [6]: Hepatotoxicity in rat assessed as increase in serum ALT level at 10 to 20 mg/kg, IG administered for 28 days and measured after 14 days relative to control. It is filed as toxicity, organism-based. The settings on record: in vivo, po, 672 h, dose 10-20 mg/kg, time 28 day.
Series [7] in a line: Hepatotoxicity in rat assessed as change in serum ALP level at 10 to 40 mg/kg, IG administered for 28 days and measured after 14 days. The settings on record: in vivo, po, 672 h, dose 10-40 mg/kg, time 28 day. Format: toxicity, organism-based.
Series [8] in a line: Hepatotoxicity in rat assessed as change in serum total bilirubin (TBIL) level at 10 to 40 mg/kg, IG administered for 28 days and measured after 14 days. Format: toxicity, organism-based. The settings on record: in vivo, po, 672 h, dose 10-40 mg/kg, time 28 day.
The nature of series [9]: Hepatotoxicity in rat assessed as increase in serum ALT level at 40 mg/kg, IG administered for 28 days and measured after 14 days. It is filed as toxicity, organism-based. The settings on record: in vivo, po, 672 h, time 28 day.
Series [10] is described as follows: Hepatotoxicity in rat assessed as change in serum AST level at 10 to 40 mg/kg, IG administered for 28 days and measured after 14 days. Format: toxicity, organism-based. The settings on record: in vivo, po, 672 h, dose 10-40 mg/kg, time 28 day.
The nature of series [11]: Hepatotoxicity in rat assessed as increase in serum TBIL level at 40 mg/kg, IG administered for 28 days and measured after 14 days. The settings on record: in vivo, po, 672 h, time 28 day. It is filed as toxicity, organism-based.

Activity calls are given as the source filed them.

Sequence of Voltage-gated potassium channel, KQT; KCNQ2(Kv7.2)/KCNQ3(Kv7.3) (O43526 whole entry): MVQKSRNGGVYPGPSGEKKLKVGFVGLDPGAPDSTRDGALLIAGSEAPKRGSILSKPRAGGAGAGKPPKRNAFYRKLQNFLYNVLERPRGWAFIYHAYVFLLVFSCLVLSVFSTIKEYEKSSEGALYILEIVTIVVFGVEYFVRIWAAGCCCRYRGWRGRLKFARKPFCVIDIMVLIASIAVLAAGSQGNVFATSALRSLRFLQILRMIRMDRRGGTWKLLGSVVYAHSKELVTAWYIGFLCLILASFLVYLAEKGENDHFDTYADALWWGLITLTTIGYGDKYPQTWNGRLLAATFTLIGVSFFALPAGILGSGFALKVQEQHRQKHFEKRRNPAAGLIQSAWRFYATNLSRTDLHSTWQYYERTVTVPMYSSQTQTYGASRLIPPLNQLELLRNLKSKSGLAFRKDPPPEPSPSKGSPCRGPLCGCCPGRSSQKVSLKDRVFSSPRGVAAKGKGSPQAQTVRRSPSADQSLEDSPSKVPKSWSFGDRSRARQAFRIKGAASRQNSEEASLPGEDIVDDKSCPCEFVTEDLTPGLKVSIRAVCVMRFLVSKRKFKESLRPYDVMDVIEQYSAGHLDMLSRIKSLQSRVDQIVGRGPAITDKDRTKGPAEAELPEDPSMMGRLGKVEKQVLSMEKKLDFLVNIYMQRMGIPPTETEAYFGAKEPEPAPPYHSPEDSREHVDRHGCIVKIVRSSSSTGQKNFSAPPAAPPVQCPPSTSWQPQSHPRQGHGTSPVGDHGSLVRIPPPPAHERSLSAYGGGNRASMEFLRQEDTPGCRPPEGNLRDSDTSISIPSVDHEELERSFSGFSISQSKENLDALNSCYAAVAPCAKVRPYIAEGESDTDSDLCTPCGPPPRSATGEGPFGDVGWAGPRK
Sequence of Voltage-gated potassium channel, KQT; KCNQ2(Kv7.2)/KCNQ3(Kv7.3) (O43525 whole entry): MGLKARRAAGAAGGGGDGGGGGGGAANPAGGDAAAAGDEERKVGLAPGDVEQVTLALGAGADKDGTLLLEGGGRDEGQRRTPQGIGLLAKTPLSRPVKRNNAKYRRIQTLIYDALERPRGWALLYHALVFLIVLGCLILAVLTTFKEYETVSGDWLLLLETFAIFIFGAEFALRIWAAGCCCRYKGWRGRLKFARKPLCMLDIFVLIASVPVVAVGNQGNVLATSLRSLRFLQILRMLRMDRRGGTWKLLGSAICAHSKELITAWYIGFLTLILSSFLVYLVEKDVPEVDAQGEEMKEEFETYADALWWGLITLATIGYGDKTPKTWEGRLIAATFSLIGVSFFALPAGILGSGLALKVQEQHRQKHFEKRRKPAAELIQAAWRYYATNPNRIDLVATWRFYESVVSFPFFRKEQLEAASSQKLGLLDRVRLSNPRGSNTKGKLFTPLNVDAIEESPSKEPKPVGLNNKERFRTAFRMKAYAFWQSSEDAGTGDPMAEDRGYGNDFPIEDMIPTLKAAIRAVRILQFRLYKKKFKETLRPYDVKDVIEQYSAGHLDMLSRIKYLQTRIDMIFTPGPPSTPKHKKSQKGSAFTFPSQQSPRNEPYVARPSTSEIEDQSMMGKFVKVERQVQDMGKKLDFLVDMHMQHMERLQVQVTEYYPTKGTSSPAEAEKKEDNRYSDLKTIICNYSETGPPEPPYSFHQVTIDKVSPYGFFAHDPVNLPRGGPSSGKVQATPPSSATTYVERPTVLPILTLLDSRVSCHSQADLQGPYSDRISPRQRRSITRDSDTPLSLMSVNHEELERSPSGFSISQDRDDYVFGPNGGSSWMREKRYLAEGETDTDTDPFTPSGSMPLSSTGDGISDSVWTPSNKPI

By EC50 is commonly meant the concentration needed to bring the measured effect to its halfway point. Read a high EC50 as lower potency in that assay. In the case of `CC(=O)Nc1cc(OCc2ccc(F)cc2)ccc1N`, the response in series [1] was half-maximal at 13.5 µM (EC50). That is a double-digit micromolar value.
The same measure, in the same setting: the figure for `CC(=O)Nc1nc(OCc2ccc3c(c2)OCO3)ccc1N` is 128 µM; for `COc1ccc(COc2ccc(N)c(NC(C)=O)n2)cc1` it is 13.5 µM; for `CCOC(=O)Nc1ccc(OCc2ccc(F)cc2)nc1NC(C)=O` it is 6.19 µM.
The same measure, in the same setting: the figure for `COc1cccc(COc2ccc(N)c(NC(C)=O)n2)c1` is 30.3 µM.
`CC(C)C[C@H](CN)CC(=O)O`: the result in [2] and in series [3] was inactive. Also, the outcome in series [4] and in series [5] was Active.
In [1], `CC(C)C(=O)Nc1nc(OCc2ccc(F)cc2)ccc1N` gave an EC50 of 18.4 µM.
Still for that read-out and setting: the figure for `CCOC(=O)Nc1nc(OCc2ccc(F)cc2)ccc1N` is 12.1 µM.
On to `CCOC(=O)Nc1ccc(NCc2ccc(F)cc2)nc1N` [FLUPIRTINE], for which the Activity in series [6] is less than 70%; in series [7], “Non-toxic”; in [8] it was “Non-toxic”; in [9], “Toxic”; in series [10], “Non-toxic”; in series [11] it was “Toxic”. The same compound registered an EC50 in [1] of 1.9 µM.
Take `CC(=O)Nc1ccc(OCc2ccc(F)cc2)nc1NC(C)=O`: the midpoint of the response in [1], the EC50, lay at 7.61 µM.
Still for that read-out and setting: the figure for `CC(=O)Nc1nc(OCc2ccncc2)ccc1N` is 35.3 µM; for `CC(=O)Nc1nc(OCc2ccc(C(F)(F)F)cc2)ccc1N` it is 8.9 µM; for `CC(=O)Nc1nc(OCc2cccc3ccccc23)ccc1N` it is 218 µM.
`Nc1ccc(OCc2ccc(F)cc2)nc1N1CCCC1=O`: in series [1], the midpoint of the response, the EC50, lay at 12.7 µM.
Same read-out and setting: the figure for `CC(=O)Nc1nc(OC(C)c2ccc(F)cc2)ccc1N` (centres undefined) is 18.9 µM; for `CCC(=O)Nc1nc(OCc2ccc(F)cc2)ccc1N` it is 13.9 µM.
On the same count and under the same terms, the figure for `CC(=O)Nc1nc(OCc2ccc3ccccc3c2)ccc1N` is 189 µM; for `Nc1ccc(OCc2ccc(F)cc2)nc1NC(=O)C1CCCC1` it is 131 µM.
In series [1], `Nc1ccc(OCc2ccc(F)cc2)nc1NC(=O)C1CCCCC1` returned a 50% effective concentration (EC50) of 164 µM.
For `CC(=O)Nc1nc(OCc2ccc(-c3ccccc3)cc2)ccc1N`, the EC50 in [1] was 131 µM.
Still for that read-out and setting: the figure for `CC(=O)Nc1nc(OCCc2ccc(F)cc2)ccc1N` is 9.39 µM; for `Nc1ccc(OCc2ccc(F)cc2)nc1NC(=O)c1ccccc1` it is 98.6 µM; for `Nc1ccc(OCc2ccc(F)cc2)cc1NC(=O)C1CC1` it is 30.3 µM.
The same measure, in the same setting: the figure for `Nc1ccc(OCc2ccc(F)cc2)cc1NC(=O)c1ccccc1` is 196 µM; for `CC(=O)Nc1nc(OCc2ccc(Cl)c(Cl)c2)ccc1N` it is 10.1 µM.

The values above are taken from ChEMBL document CHEMBL6092178, “Discovery of a novel KV7.2/7.3 channels agonist for the treatment of neuropathic pain” (Eur J Med Chem, 2024).
